Measurements from patent US7563793B2, “Pyrrolo[1,2-a]quinoxalin-5-(4H)-yl)sulfonyls and carbonyls and their use as estrogenic agents” (Wyeth, priority 2004, dated 2009).
pEC50, pIC50: −log10 of the molar value. Where two headings read alike, the source gives them in different places.

Legend:
IL-6 = IL-6 assay (ELISA) in Ad5-wt-ER infected HAECT-1 cells (IL-1β induced); assay type: cell-based, human; settings: Homo sapiens; for pIC50: HAECT1; for Emax: HAECT1, relative to maximal inhibition observed with E2, read-out: IL-6 Efficacy
Protocol: (§1) After four hours, cells were washed with EBM-BSA and incubated overnight in the same medium. […] After two hours, cells were washed and incubated at 34° C. for 1 hour. […] Control (no ER infection) cells were processed as above without Ad5-wt-hERα virus infection. […] Cells were subsequently washed with 300 μl of Dulbecco's phosphate buffered saline and lysed in 50 μl of Cell Culture Lysis Reagent (Promega). Luciferase was determined on a Wallac Victor^2 Luminometer (Gaithersburg, Md.) using 10 μl of lysate and mixing with 100 lμof Promega Luciferase Assay reagent. […] For IC50 and EC50 calculations, mean IL-6, luciferase or CK values versus log10 of the compound concentration were fitted to a four parameter logistic equation. The IC50/EC50 value, ‘Hill slope’, upper and lower limits of the curve were iteratively estimated.

ER/Nf-kB = assay: ER/NF-κB luciferase reporter assay in Ad5-wt-ER infected HAECT-1 cells (IL-1β induced); assay type: cell-based, human; settings: for ER/Nf-kB Efficacy: relative to maximal inhibition observed with E2
Protocol: as §1

creatine kinase = assay: Creatine kinase assay in Ad5-wt-ER infected HAECT-1 cells; assay type: cell-based, human; settings: for CK Efficacy: relative to maximal stimulation observed with E2
Protocol: as §1

Compound	pIC50 (ER/Nf-kB)	ER/Nf-kB Efficacy (ER/Nf-kB) [%]	CK Efficacy (creatine kinase) [%]	also measured
CC[C@H]1c2cccn2-c2cc(F)c(F)cc2N1S(=O)(=O)c1ccc(O)c(C)c1 [102 (S), 4-{[(4S)-4-ethyl-7,8-difluoropyrrolo[1,2-a]quinoxalin-5(4H)-yl]sulfonyl}-2-methylphenol]	–	–	–	pIC50 (IL-6): 8.08; Emax (IL-6): 161%; melting point: 161 to 163 °C
CC[C@@H]1c2cccn2-c2ccc(Cl)cc2N1C(=O)c1ccc(O)cc1O [125 (R), 4-{[(4R)-7-chloro-4-ethylpyrrolo[1,2-a]quinoxalin-5(4H)-yl]carbonyl}benzene-1,3-diol]	–	–	–	pIC50 (IL-6): 9.40; Emax (IL-6): 120%; melting point: 213 to 214 °C
CCC1c2cccn2-c2cc(F)c(F)cc2N1S(=O)(=O)c1ccc(O)c(C)c1 (centres unmarked) [Example 5, 4-[(4-ethyl-7,8-difluoropyrrolo[1,2-a]quinoxalin-5-(4H)-yl)sulfonyl]-2-methylphenol]	7.09	99	37	–
CCC1c2cccn2-c2cc(F)c(F)cc2N1S(=O)(=O)c1ccc(O)cc1 (centres unmarked) [Example 7, 4-[(4-ethyl-7,8-difluoropyrrolo[1,2-a]quinoxalin-5-(4H)-yl)sulfonyl]phenol]	7.59	113	37	–
CC1c2cccn2-c2cc(F)c(F)cc2N1S(=O)(=O)c1ccc(O)cc1 (centres unmarked) [Example 10, 4-[(7,8-difluoro-4-methylpyrrolo[1,2-a]quinoxalin-5-(4H)-yl)sulfonyl]phenol]	7.85	97	39	–
CCC1c2cccn2-c2ccc(F)cc2N1S(=O)(=O)c1ccc(O)c(C)c1 (centres unmarked) [Example 19, 4-[(4-ethyl-7-fluoropyrrolo[1,2-a]quinoxalin-5-(4H)-yl)sulfonyl]-2-methylphenol]	7.47	94	52	–
CCC1c2cccn2-c2ccc(F)cc2N1S(=O)(=O)c1ccc(O)cc1 (centres unmarked) [Example 21, 4-[(4-ethyl-7-fluoropyrrolo[1,2-a]quinoxalin-5-(4H)-yl)sulfonyl]phenol]	7.15	97	38	–
CCC1c2ccc(C=O)n2-c2ccc(F)cc2N1S(=O)(=O)c1ccc(O)c(C)c1 (centres unmarked) [Example 25, 4-ethyl-7-fluoro-5-[(4-hydroxy-3-methylphenyl)sulfonyl]-4,5-dihydropyrrolo[1,2-a]quinoxaline-1-carboxaldehyde]	–	–	–	melting point: 192 to 194 °C
CCC1c2ccc(F)n2-c2ccc(F)cc2N1S(=O)(=O)c1ccc(O)c(C)c1 (centres unmarked) [Example 28, 4-[(4-ethyl-1,7-difluoropyrrolo[1,2-a]quinoxalin-5-(4H)-yl)sulfonyl]-2-methylphenol]	7.28	105	45	–
CCC1c2ccc(Br)n2-c2ccc(F)cc2N1S(=O)(=O)c1ccc(O)c(C)c1 (centres unmarked) [Example 29, 4-[(1-bromo-4-ethyl-7-fluoropyrrolo[1,2-a]quinoxalin-5-(4H)-yl)sulfonyl]-2-methylphenol]	6.23	100	28	–
CCC1c2ccc(C(N)=O)n2-c2ccc(F)cc2N1S(=O)(=O)c1ccc(O)cc1 (centres unmarked) [Example 36, 4-ethyl-7-fluoro-5-[(4-hydroxyphenyl)sulfonyl]-4,5-dihydropyrrolo[1,2-a]quinoxaline-1-carboxamide]	–	–	–	melting point: 168 to 170 °C (dec.)
CCC1c2cccn2-c2ccc(F)cc2N1S(=O)(=O)c1cc(C)c(O)c(C)c1 (centres unmarked) [Example 38, 4-[(4-ethyl-7-fluoropyrrolo[1,2-a]quinoxalin-5-(4H)-yl)sulfonyl]-2,6-dimethylphenol]	6.70	109	38	–
CC1(C)c2cccn2-c2ccc(Br)cc2N1S(=O)(=O)c1ccc(O)cc1 [Example 41, 4-[(7-bromo-4,4-dimethylpyrrolo[1,2-a]quinoxalin-5-(4H)-yl)sulfonyl]phenol]	6.66	109	35	–
CCC1c2cccn2-c2ccc(Br)cc2N1S(=O)(=O)c1ccc(O)cc1 (centres unmarked) [Example 44, 4-[(7-bromo-4-ethylpyrrolo[1,2-a]quinoxalin-5-(4H)-yl)sulfonyl]phenol]	7.38	97	51	–
CCC1c2ccc(F)n2-c2ccc(Br)cc2N1S(=O)(=O)c1ccc(O)cc1 (centres unmarked) [Example 45, 4-[(7-bromo-4-ethyl-1-fluoropyrrolo[1,2-a]quinoxalin-5-(4H)-yl)sulfonyl]phenol]	7.92	95	53	–
CCC1c2cccn2-c2ccc(Br)cc2N1S(=O)(=O)c1ccc(O)c(C)c1 (centres unmarked) [Example 46, 4-[(7-bromo-4-ethylpyrrolo[1,2-a]quinoxalin-5-(4H)-yl)sulfonyl]-2-methylphenol]	7.21	108	43	–

Compound	pIC50 (ER/Nf-kB)	ER/Nf-kB Efficacy (ER/Nf-kB) [%]	CK Efficacy (creatine kinase) [%]	also measured
CC1c2cccn2-c2ccc(F)cc2N1S(=O)(=O)c1ccc(O)cc1 (centres unmarked) [Example 49, 4-[(7-fluoro-4-methylpyrrolo[1,2-a]quinoxalin-5-(4H)-yl)sulfonyl]phenol]	7.17	85	19	–
CCC1c2cccn2-c2ccc(C(F)(F)F)cc2N1S(=O)(=O)c1ccc(O)c(C)c1 (centres unmarked) [Example 58, 4-{[4-ethyl-7-(trifluoromethyl)pyrrolo[1,2-a]quinoxalin-5-(4H)-yl]sulfonyl}-2-methylphenol]	7.07	132	42	–
CCC1c2cccn2-c2ccc(C(F)(F)F)cc2N1S(=O)(=O)c1ccc(O)c(Cl)c1 (centres unmarked) [Example 61, 2-chloro-4-{[4-ethyl-7-(trifluoromethyl)pyrrolo[1,2-a]quinoxalin-5-(4H)-yl]sulfonyl}phenol]	5.00	69	15	–
CCC1c2cccn2-c2ccccc2N1S(=O)(=O)c1ccc(O)c(C)c1 (centres unmarked) [Example 64, 4-[(4-ethylpyrrolo[1,2-a]quinoxalin-5-(4H)-yl)sulfonyl]-2-methylphenol]	6.69	89	–	–
CCOC(=O)Oc1ccc(S(=O)(=O)N2c3c(C)cccc3-n3cccc3C2CC)cc1 (centres unmarked) [Example 66, ethyl 4-[(4-ethyl-6-methylpyrrolo[1,2-a]quinoxalin-5-(4H)-yl)sulfonyl]phenyl carbonate]	6.49	98	–	–
CCC1c2cccn2-c2ccc(Cl)cc2N1S(=O)(=O)c1ccc(O)c(C)c1 (centres unmarked) [Example 68A, 4-[(7-chloro-4-ethylpyrrolo[1,2-a]quinoxalin-5-(4H)-yl)sulfonyl]-2-methylphenol]	7.03	105	49	–
CCOC(=O)Oc1ccc(S(=O)(=O)N2c3ccc(Cl)cc3-n3cccc3C2CC)cc1 (centres unmarked) [Example 70, 4-[(8-chloro-4-ethylpyrrolo[1,2-a]quinoxalin-5-(4H)-yl)sulfonyl]phenyl ethyl carbonate]	6.82	98	45	–
CCC1c2cccn2-c2cc(Cl)ccc2N1S(=O)(=O)c1ccc(O)cc1 (centres unmarked) [Example 71, 4-[(8-chloro-4-ethylpyrrolo[1,2-a]quinoxalin-5-(4H)-yl)sulfonyl]phenol]	6.76	101	34	–
CCC1c2cccn2-c2cc(OC)c(F)cc2N1S(=O)(=O)c1ccc(O)cc1 (centres unmarked) [Example 75, 4-[(4-ethyl-7-fluoro-8-methoxypyrrolo[1,2-a]quinoxalin-5-(4H)-yl)sulfonyl]phenol]	7.44	84	46	–
CC[C@@H]1c2cccn2-c2ccc(Br)cc2N1S(=O)(=O)c1ccc(O)cc1 [Example 78, 4-{[(4R)-7-bromo-4-ethylpyrrolo[1,2-a]quinoxalin-5(4H)-yl]sulfonyl}phenol]	–	–	–	pIC50 (IL-6): 5.96; Emax (IL-6): 40%; melting point: 187 to 189 °C
CC[C@@H]1c2ccc(C#N)n2-c2cc(F)c(F)cc2N1S(=O)(=O)c1ccc(O)cc1 [Example 101 (R), (4R)-4-ethyl-7,8-difluoro-5-[(4-hydroxyphenyl)sulfonyl]-4,5-dihydropyrrolo[1,2-a]quinoxaline-1-carbonitrile]	–	–	–	melting point: 194 to 195 °C
CCC1c2cccn2-c2ccc(F)cc2N1C(=O)c1ccc(O)cc1O (centres unmarked) [Example 120, 4-[(4-ethyl-7-fluoropyrrolo[1,2-a]quinoxalin-5(4H)-yl)carbonyl]benzene-1,3-diol]	–	–	–	melting point: 153 to 155 °C
CCC1c2cccn2-c2ccc(Cl)cc2N1C(=O)c1ccc(O)cc1O (centres unmarked) [Example 124, 4-[(7-chloro-4-ethylpyrrolo[1,2-a]quinoxalin-5(4H)-yl)carbonyl]benzene-1,3-diol]	–	–	–	melting point: 198 to 201 °C
CCC1c2cccn2-c2ccc(F)cc2N1C(=O)c1cccc(O)c1 (centres unmarked) [Example 126, 3-[(4-ethyl-7-fluoropyrrolo[1,2-a]quinoxalin-5(4H)-yl)carbonyl]phenol]	–	–	–	melting point: 115 to 117 °C
C[C@]12CC[C@@H]3c4ccc(O)cc4CC[C@H]3[C@@H]1CC[C@@H]2O [Example E2, 17β-estradiol, reference compound]	–	100	–	pIC50 (ER/Nf-kB; Homo sapiens, HAECT1): 8.77; pEC50 (creatine kinase; Homo sapiens, HAECT1, CK stimulation, N/O = activity not observed at concentrations tested, read-out: CK IC50): 8.24; Emax (creatine kinase; Homo sapiens, HAECT1, relative to maximal stimulation observed with E2, read-out: CK Efficacy): 100%
